Source: patent publication US9062074B2, “(9E)-15-(2-pyrrolidin-1-yl-ethoxy)-7,12,25-trioxa-19,21,24-triaza-tetracyclo[18.3.1.1(2.5).1(14,18)]hexacosa-1(24),2,4,9,14,16,18(26),20,22-nonaene citrate salt” (CTI BioPharma Corp., priority 2009, dated 2015)
Where two headings read alike, the source gives them in different places.

Legend:
Assay type in all cases: physicochemical
[1] = Phase stability by XRPD after storage at 40° C. and 75% relative humidity for one week; conditions: solid form by low resolution XRPD after one week
Experimental: Condition 2 (Low Resolution)
X-Ray Powder Diffraction patterns were also collected on a Bruker D8 diffractometer using Cu K[…] radiation (40 kV, 40 mA), θ-2θ goniometer, and divergence of V4 and receiving slits, a Ge monochromator and a Lynxeye detector. The instrument is performance checked using a certified Corundum standard (NIST 1976). The software used for data collection was Diffrac Plus XRD Commander v2.5.0 and the data were analysed and presented using Diffrac Plus EVA v 11.0.0.2 or v 13.0.0.2. Samples were run under ambient conditions as flat plate specimens using powder as received. Approximately 15 mg of the sample was gently packed into a cavity cut into polished, zerobackground (510) silicon wafer. The sample was rotated in its own plane during analysis. The details of the data collection are:
The samples which had been prepared for the collection of low resolution XRPD traces were placed in a chamber maintained at 40° C. and 75% relative humidity. After one week the samples were reanalysed by low resolution XRPD (Condition 2), to check for phase changes. It can be seen that no phase change has occurred, and that citrate salts of the invention are stable for at least one week under these conditions.

[2] = Solubility assessment (solvent added in 10 volume aliquots); conditions: thermodynamic from solid, read-out: Solubility assessment observation
Experimental: For each solvent investigated, approximately 8 mg of compound 1 was weighed into an 8 ml screw top glass vial. The solvent was added in 10 volume aliquots and the mixture sonicated and warmed (with a hot-air gun) to encourage dissolution. If dissolution was not achieved after the addition of 100 volumes of solvent, a further 100 volumes was added.

[3] = Differential Scanning Calorimetry (DSC); conditions: heated at 10° C.min^−1
Experimental: Differential Scanning Calorimetry (DSC) data were collected on a Mettler DSC 823e equipped with a 34 position auto-sampler. The instrument was calibrated for energy and temperature using certified indium. Typically 0.5-3 mg of each sample, in a pin-holed aluminium pan, was heated at 10° C.min^−1 from 25° C. to 350° C. A nitrogen purge at 50 ml.min^−1 was maintained over the sample. The instrument control and data analysis software was STARe v9.10.

[4] = Thermogravimetric Analysis (TGA)
Experimental: Thermogravimetric Analysis (TGA) data were collected on a Mettler TGA/SDTA 851e equipped with a 34 position autosampler. The instrument was temperature calibrated using certified indium. Typically 5-30 mg of each sample was loaded onto a pre-weighed aluminium crucible and was heated at 10° C.min^−1 from ambient temperature to 350° C. A nitrogen purge at 50 ml.min^−1 was maintained over the sample. The instrument control and data analysis software was STARe v9.10.

For `C1=C2COC/C=C/COCc3cc(ccc3OCCN3CCCC3)Nc3nccc(n3)C(=C1)O2` [Batch 5], the “Phase Stability 1 wk @ 40° C./75% RH” value [1] was “Crystalline Form 1”, the solubility ([2]; IPA, organic solvent or mixture, IPA, 10 vols) was under 100 mg/mL and the solubility ([2]; IPA, organic solvent or mixture, IPA, 20 vols) was under 50 mg/mL. For the same compound, the solubility ([2]; IPA, organic solvent or mixture, IPA, 30 vols) was under 33.3 mg/mL, the solubility ([2]; IPA, organic solvent or mixture, IPA, 40 vols) was under 25 mg/mL and the solubility ([2]; IPA, organic solvent or mixture, IPA, 60 vols) was under 16.7 mg/mL. For the same compound, the solubility ([2]; IPA, organic solvent or mixture, IPA, 80 vols) was under 12.5 mg/mL, the solubility ([2]; IPA, organic solvent or mixture, IPA, 100 vols) was under 10 mg/mL and the solubility ([2]; IPA, organic solvent or mixture, IPA, 200 vols) was under 5 mg/mL. It also gave a solubility ([2]; MEK, organic solvent or mixture, MEK, 10 vols) of under 100 mg/mL, a solubility ([2]; MEK, organic solvent or mixture, MEK, 20 vols) of under 50 mg/mL and a solubility ([2]; MEK, organic solvent or mixture, MEK, 30 vols) of under 33.3 mg/mL. For the same compound, the solubility ([2]; MEK, organic solvent or mixture, MEK, 40 vols) was under 25 mg/mL, the solubility ([2]; MEK, organic solvent or mixture, MEK, 50 vols) was under 20 mg/mL and the solubility ([2]; MEK, organic solvent or mixture, MEK, 60 vols) was under 16.7 mg/mL. It also gave a solubility ([2]; MEK, organic solvent or mixture, MEK, 80 vols) of under 12.5 mg/mL, a solubility ([2]; MEK, organic solvent or mixture, MEK, 100 vols) of under 10 mg/mL and a solubility ([2]; MEK, organic solvent or mixture, MEK, 200 vols) of under 5 mg/mL. It also gave a solubility ([2]; THF, organic solvent or mixture, THF, 10 vols) of under 100 mg/mL, a solubility ([2]; THF, organic solvent or mixture, THF, 20 vols) of under 50 mg/mL and a solubility ([2]; THF, organic solvent or mixture, THF, 30 vols) of under 33.3 mg/mL. The solubility ([2]; THF, organic solvent or mixture, THF, 40 vols) was under 25 mg/mL, the solubility ([2]; THF, organic solvent or mixture, THF, 60 vols) was under 16.7 mg/mL and the solubility ([2]; THF, organic solvent or mixture, THF, 80 vols) was under 12.5 mg/mL. For the same compound, the solubility ([2]; THF, organic solvent or mixture, THF, 100 vols) was under 10 mg/mL, the solubility ([2]; THF, organic solvent or mixture, THF, 200 vols) was under 5 mg/mL and the solubility ([2]; acetone, organic solvent or mixture, Acetone, 10 vols) was under 100 mg/mL. For the same compound, the solubility ([2]; acetone, organic solvent or mixture, Acetone, 20 vols) was under 50 mg/mL, the solubility ([2]; acetone, organic solvent or mixture, Acetone, 40 vols) was under 25 mg/mL and the solubility ([2]; acetone, organic solvent or mixture, Acetone, 60 vols) was under 16.7 mg/mL. For the same compound, the solubility ([2]; acetone, organic solvent or mixture, Acetone, 80 vols) was under 12.5 mg/mL, the solubility ([2]; acetone, organic solvent or mixture, Acetone, 100 vols) was under 10 mg/mL and the solubility ([2]; acetone, organic solvent or mixture, Acetone, 200 vols) was under 5 mg/mL. For the same compound, the solubility ([2]; acetonitrile, organic solvent or mixture, Acetonitrile, 10 vols) was under 100 mg/mL, the solubility ([2]; acetonitrile, organic solvent or mixture, Acetonitrile, 20 vols) was under 50 mg/mL and the solubility ([2]; acetonitrile, organic solvent or mixture, Acetonitrile, 30 vols) was under 33.3 mg/mL. The solubility ([2]; acetonitrile, organic solvent or mixture, Acetonitrile, 40 vols) was under 25 mg/mL, the solubility ([2]; acetonitrile, organic solvent or mixture, Acetonitrile, 60 vols) was under 16.7 mg/mL and the solubility ([2]; acetonitrile, organic solvent or mixture, Acetonitrile, 80 vols) was under 12.5 mg/mL. It also gave a solubility ([2]; acetonitrile, organic solvent or mixture, Acetonitrile, 100 vols) of under 10 mg/mL, a solubility ([2]; acetonitrile, organic solvent or mixture, Acetonitrile, 200 vols) of under 5 mg/mL and a solubility ([2]; ethanol, organic solvent or mixture, Ethanol, 10 vols) of under 100 mg/mL. It also gave a solubility ([2]; ethanol, organic solvent or mixture, Ethanol, 20 vols) of under 50 mg/mL, a solubility ([2]; ethanol, organic solvent or mixture, Ethanol, 30 vols) of under 33.3 mg/mL and a solubility ([2]; ethanol, organic solvent or mixture, Ethanol, 40 vols) of under 25 mg/mL. The solubility ([2]; ethanol, organic solvent or mixture, Ethanol, 60 vols) was under 16.7 mg/mL, the solubility ([2]; ethanol, organic solvent or mixture, Ethanol, 80 vols) was under 12.5 mg/mL and the solubility ([2]; ethanol, organic solvent or mixture, Ethanol, 100 vols) was under 10 mg/mL. The solubility ([2]; ethanol, organic solvent or mixture, Ethanol, 200 vols) was under 5 mg/mL, the solubility ([2]; water, Water, 10 vols) was over 100 mg/mL and the “Differential Scanning Calorimetry complex endotherm onset (significant thermal event)” value [3] was “onset 178 °C”. For the same compound, the “Thermogravimetric Analysis weight change” value ([4]; 160 to 250° C.) was −21% w/w 160 to 250 °C and the “Thermogravimetric Analysis weight change” value ([4]; ambient to 160° C.) was −0.4% w/w ambient to.
